In US6552216B1, “Molecular model for VLA-4 inhibitors” (Biogen, Inc., priority 1996, dated 2003):

Target: VLA-4 (Homo sapiens, UniProt P05556+P13612)
Assay: VLA-4 direct binding assay (DBA)
Text: (§1) Those skilled in the art routinely perform such assays, and can readily determine the activity of the experimental compound.
as §1

Sequence of VLA-4 (P13612 34-1032): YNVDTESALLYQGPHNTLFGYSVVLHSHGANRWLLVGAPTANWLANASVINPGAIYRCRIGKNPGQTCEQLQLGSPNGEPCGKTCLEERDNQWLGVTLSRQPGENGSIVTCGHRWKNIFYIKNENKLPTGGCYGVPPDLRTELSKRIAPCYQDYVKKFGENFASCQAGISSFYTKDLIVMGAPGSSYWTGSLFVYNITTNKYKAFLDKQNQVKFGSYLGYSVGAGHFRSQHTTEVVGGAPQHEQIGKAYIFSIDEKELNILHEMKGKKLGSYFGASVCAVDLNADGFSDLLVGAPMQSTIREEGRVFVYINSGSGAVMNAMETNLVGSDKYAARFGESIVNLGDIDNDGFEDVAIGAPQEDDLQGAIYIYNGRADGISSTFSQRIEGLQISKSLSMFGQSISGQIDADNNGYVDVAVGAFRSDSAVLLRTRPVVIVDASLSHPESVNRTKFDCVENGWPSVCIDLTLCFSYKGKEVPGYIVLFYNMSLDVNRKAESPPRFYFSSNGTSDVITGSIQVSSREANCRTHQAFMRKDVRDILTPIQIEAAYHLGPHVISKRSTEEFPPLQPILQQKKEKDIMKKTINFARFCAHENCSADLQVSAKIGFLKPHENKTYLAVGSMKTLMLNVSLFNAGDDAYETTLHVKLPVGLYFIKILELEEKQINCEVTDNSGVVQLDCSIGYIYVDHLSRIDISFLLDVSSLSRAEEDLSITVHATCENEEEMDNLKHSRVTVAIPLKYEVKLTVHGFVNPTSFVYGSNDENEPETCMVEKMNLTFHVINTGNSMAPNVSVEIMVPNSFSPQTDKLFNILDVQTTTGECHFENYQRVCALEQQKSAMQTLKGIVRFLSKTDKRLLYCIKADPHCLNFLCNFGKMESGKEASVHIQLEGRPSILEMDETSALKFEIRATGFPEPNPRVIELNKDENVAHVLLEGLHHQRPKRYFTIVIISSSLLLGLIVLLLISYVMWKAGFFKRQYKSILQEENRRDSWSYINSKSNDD
Sequence of VLA-4 (P05556 21-798): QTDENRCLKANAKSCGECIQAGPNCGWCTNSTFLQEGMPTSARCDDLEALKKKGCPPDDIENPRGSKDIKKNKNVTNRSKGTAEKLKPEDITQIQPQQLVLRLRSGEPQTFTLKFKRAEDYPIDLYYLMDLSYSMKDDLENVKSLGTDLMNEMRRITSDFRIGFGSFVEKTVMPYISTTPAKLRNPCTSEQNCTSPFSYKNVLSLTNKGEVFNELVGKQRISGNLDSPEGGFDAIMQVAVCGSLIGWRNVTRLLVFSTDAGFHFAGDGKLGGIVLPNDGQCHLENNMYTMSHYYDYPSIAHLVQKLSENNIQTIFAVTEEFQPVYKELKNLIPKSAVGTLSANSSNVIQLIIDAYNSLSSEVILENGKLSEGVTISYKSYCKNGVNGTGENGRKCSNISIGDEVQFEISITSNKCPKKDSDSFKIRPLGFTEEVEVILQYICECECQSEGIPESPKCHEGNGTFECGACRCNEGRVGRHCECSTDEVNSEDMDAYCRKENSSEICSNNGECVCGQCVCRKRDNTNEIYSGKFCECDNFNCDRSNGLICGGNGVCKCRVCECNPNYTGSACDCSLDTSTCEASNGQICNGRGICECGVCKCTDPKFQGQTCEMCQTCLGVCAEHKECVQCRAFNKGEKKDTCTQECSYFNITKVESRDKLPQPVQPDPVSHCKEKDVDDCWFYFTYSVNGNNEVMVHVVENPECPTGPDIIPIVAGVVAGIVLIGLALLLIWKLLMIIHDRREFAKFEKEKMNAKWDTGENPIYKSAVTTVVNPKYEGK

IC50: 2000 nM
SMILES: CC(C)C[C@H](NC(=O)Cc1ccccc1)C(=O)N[C@@H](CC(=O)O)C(=O)N[C@H](C(=O)N1CCC[C@H]1C(=O)O)C(C)C [Phenylacetyl-Leu-Asp-Val-Pro]
